Measured values from US10131652B2, “Pyrimidinyloxy benzene derivatives as herbicides” (E. I. DU PONT DE NEMOURS AND COMPANY, priority 2014, dated 2018).
Where two headings read alike, the source gives them in different places.

Tests used:
Assay in all cases: Test F pre-/postemergence plant response
Assay type in all cases: in vivo
[1] = test system: velvetleaf (Abutilon theophrasti); conditions: Abutilon theophrasti, pre-emergence, scale 0 to 100, read-out: Plant response rating, Velvetleaf
From the text: (§1) Seeds of plant species selected from corn (Zea mays), soybean (Glycine max), velvetleaf (Abutilon theophrasti), lambsquarters (Chenopodium album), wild poinsettia (Euphorbia heterophylla), palmer pigweed (Amaranthus palmeri), waterhemp (common waterhemp, Amaranthus rudis), surinam grass (Brachiaria decumbens), large (Lg) crabgrass (Digitaria sanguinalis), Brazilian crabgrass (Digitaria horizontalis), fall panicum (Panicum dichotomiflorum), giant foxtail (Setaria faberii), green foxtail (Setaria viridis), goosegrass (Eleusine indica), johnsongrass (Sorghum halepense), ragweed (common ragweed, Ambrosia elatior), barnyardgrass (Echinochloa crus-galli), sandbur (southern sandbur, Cenchrus echinatus), arrowleaf sida (Sida rhombifolia), Italian ryegrass (Lolium multiflorum), dayflower (Virginia (VA) dayflower, Commelina virginica), field bindweed (Convolvulus arvensis), cocklebur (common cocklebur, Xanthium strumarium), momingglory (Ipomoea coccinea), nightshade (eastern black nightshade, Solanum ptycanthum), kochia (Kochia scoparia), yellow nutsedge (Cyperus esculentus), and hairy beggarticks (Bidens pilosa), were planted into a silt loam soil and treated preemergence with test chemicals formulated in a non-phytotoxic solvent mixture which included a surfactant.
(§2) At the same time, plants from these crop and weed species and also waterhemp_RES1, (ALS & Triazine resistant common waterhemp, Amaranthus rudis), and waterhemp_RES2, (ALS & HPPD resistant common waterhemp, Amaranthus rudis) were treated with postemergence applications of test chemicals formulated in the same manner. Plants ranged in height from 2 to 18 cm for postemergence treatments (1- to 4-leaf stage).
(§3) Treated plants and controls were maintained in a greenhouse for 14 to 21 days, after which time all species were compared to controls and visually evaluated. Plant response ratings, summarized in Table F, are based on a scale of 0 to 100 where 0 is no effect and 100 is complete control. A dash (-) response means no test result.

[2] = test system: surinam grass (Brachiaria decumbens); conditions: Urochloa decumbens, pre-emergence, scale 0 to 100, read-out: Plant response rating, Surinam Grass
From the text: as §1, §2, §3

[3] = test system: wild poinsettia (Euphorbia heterophylla); conditions: Euphorbia heterophylla, scale 0 to 100, read-out: Plant response rating, Poinsettia, Wild
From the text: as §1, §2, §3

[4] = test system: ragweed (common ragweed, Ambrosia elatior); conditions: Ambrosia artemisiifolia, pre-emergence, scale 0 to 100, read-out: Plant response rating, Ragweed
From the text: as §1, §2, §3

[5] = test system: corn (Zea mays); conditions: Zea mays, scale 0 to 100
From the text: as §1, §2, §3

[6] = test system: Brazilian crabgrass (Digitaria horizontalis); conditions: Digitaria horizontalis, scale 0 to 100, read-out: Plant response rating, Crabgrass, Brazil
From the text: as §1, §2, §3

[7] = test system: nightshade (eastern black nightshade, Solanum ptycanthum); conditions: Solanum, pre-emergence, scale 0 to 100, read-out: Plant response rating, Nightshade
From the text: as §1, §2, §3

[8] = test system: fall panicum (Panicum dichotomiflorum); conditions: Panicum dichotomiflorum, scale 0 to 100, read-out: Plant response rating, Panicum, Fall
From the text: as §1, §2, §3

[9] = post-emergence, 8 g ai/ha Postemergence
[10] = post-emergence, 16 g ai/ha Postemergence
[11] = post-emergence, 31 g ai/ha Postemergence
[12] = post-emergence, 62 g ai/ha Postemergence
[13] = post-emergence, 125 g ai/ha Postemergence
[14] = pre-emergence, 8 g ai/ha Preemergence
[15] = pre-emergence, 16 g ai/ha Preemergence
[16] = pre-emergence, 31 g ai/ha Preemergence
[17] = pre-emergence, 125 g ai/ha Preemergence
[18] = pre-emergence, 62 g ai/ha Preemergence

FC(F)c1cc(-c2ccccc2Oc2ncc(Cl)cn2)no1 [Compound 35, 5-chloro-2-[2-[5-(difluoromethyl)-3-isoxazolyl]phenoxy]pyrimidine]
pest or weed control at 8 g/ha ([1]; 8 g ai/ha Preemergence): 40%
pest or weed control at 16 g/ha ([1]; 16 g ai/ha Preemergence): 70%
pest or weed control at 31 g/ha ([1]; 31 g ai/ha Preemergence): 70%
pest or weed control at 125 g/ha ([1]; 125 g ai/ha Preemergence): 100%
pest or weed control at 62 g/ha ([1]; Preemergence): 100%
pest or weed control at 8 g/ha ([2]; 8 g ai/ha Preemergence): 0%
pest or weed control at 16 g/ha ([2]; 16 g ai/ha Preemergence): 0%
pest or weed control at 31 g/ha ([2]; 31 g ai/ha Preemergence): 0%
pest or weed control at 125 g/ha ([2]; 125 g ai/ha Preemergence): 35%
pest or weed control at 62 g/ha ([2]; Preemergence): 20%
pest or weed control at 8 g/ha [3, 9]: 30%
pest or weed control at 16 g/ha [3, 10]: 40%
pest or weed control at 31 g/ha [3, 11]: 50%
pest or weed control at 62 g/ha [3, 12]: 50%
pest or weed control at 125 g/ha [3, 13]: 80%
pest or weed control at 8 g/ha [3, 14]: 20%
pest or weed control at 16 g/ha [3, 15]: 30%
pest or weed control at 31 g/ha [3, 16]: 35%
pest or weed control at 125 g/ha [3, 17]: 40%
pest or weed control at 62 g/ha ([3]; pre-emergence, Preemergence): 70%
pest or weed control at 8 g/ha ([4]; 8 g ai/ha Preemergence): 0%
pest or weed control at 16 g/ha ([4]; 16 g ai/ha Preemergence): 0%
pest or weed control at 31 g/ha ([4]; 31 g ai/ha Preemergence): 0%
pest or weed control at 125 g/ha ([4]; 125 g ai/ha Preemergence): 70%
pest or weed control at 62 g/ha ([4]; Preemergence): 40%
Corn plant response rating (crop injury, 0 = no effect, 100 = complete kill) at 8 g/ha [5, 9]: 10%
Corn plant response rating (crop injury, 0 = no effect, 100 = complete kill) at 16 g/ha [5, 10]: 10%
Corn plant response rating (crop injury, 0 = no effect, 100 = complete kill) at 31 g/ha [5, 11]: 15%
Corn plant response rating (crop injury, 0 = no effect, 100 = complete kill) at 62 g/ha [5, 12]: 15%
Corn plant response rating (crop injury, 0 = no effect, 100 = complete kill) at 125 g/ha [5, 13]: 20%
Corn plant response rating (crop injury, 0 = no effect, 100 = complete kill) at 8 g/ha [5, 14]: 0%
Corn plant response rating (crop injury, 0 = no effect, 100 = complete kill) at 16 g/ha [5, 15]: 0%
Corn plant response rating (crop injury, 0 = no effect, 100 = complete kill) at 31 g/ha [5, 16]: 30%
Corn plant response rating (crop injury, 0 = no effect, 100 = complete kill) at 62 g/ha [5, 18]: 0%
Corn plant response rating (crop injury, 0 = no effect, 100 = complete kill) at 125 g/ha [5, 17]: 20%
pest or weed control at 8 g/ha [6, 9]: 10%
pest or weed control at 16 g/ha [6, 10]: 20%
pest or weed control at 31 g/ha [6, 11]: 30%
pest or weed control at 62 g/ha [6, 12]: 35%
pest or weed control at 125 g/ha [6, 13]: 40%
pest or weed control at 8 g/ha [6, 14]: 0%
pest or weed control at 16 g/ha [6, 15]: 95%
pest or weed control at 31 g/ha [6, 16]: 98%
pest or weed control at 62 g/ha [6, 18]: 100%
pest or weed control at 125 g/ha [6, 17]: 100%
pest or weed control at 8 g/ha ([7]; 8 g ai/ha Preemergence): 75%
pest or weed control at 16 g/ha ([7]; 16 g ai/ha Preemergence): 95%
pest or weed control at 31 g/ha ([7]; 31 g ai/ha Preemergence): 98%
pest or weed control at 125 g/ha ([7]; 125 g ai/ha Preemergence): 100%
pest or weed control at 62 g/ha ([7]; Preemergence): 98%
pest or weed control at 8 g/ha [8, 9]: 30%
pest or weed control at 16 g/ha [8, 10]: 40%
pest or weed control at 31 g/ha [8, 11]: 40%
pest or weed control at 62 g/ha [8, 12]: 50%
pest or weed control at 125 g/ha [8, 13]: 50%
pest or weed control at 8 g/ha [8, 14]: 0%
pest or weed control at 16 g/ha [8, 15]: 35%
pest or weed control at 31 g/ha [8, 16]: 100%
pest or weed control at 125 g/ha [8, 17]: 100%
pest or weed control at 62 g/ha ([8]; pre-emergence, Preemergence): 100%
